Where two headings read alike, the source gives them in different places.
Key:
CD19 CAR T cells = assay: CAR T cell cytokine production (Luminex) under CD19 K562, KIP-1 or CD2/3/28 stimulation; conditions: 72 h; for IC50: Homo sapiens, T-cell
[1] = tested on: phospho-STAT-1, -3 and -5 in CD4, CD8 T cells and monocytes (CAR T product, PBMCs); assay: Intracellular phospho-STAT-1, -3, -5 by flow cytometry in immune cell subsets of CAR T product and PBMCs; format: cell-based, human; design: Primary Cell IL-6 pSTAT5 signaling (% inhibition) / Primary Cell IL-6 pSTAT1 signaling (% inhibition) / Primary Cell IL-6 pSTAT3 signaling (% inhibition) / Primary cell GM-CSF-pSTAT5, inhibition: concentration or dose not given beside the values
Procedure: (§1) Further experiments were performed to look at impacts of JAK inhibitors on STAT phosphorylation in various immune cell subsets.

CAR-T cells = assay: CAR-T cell expansion assay (KIP-1 or CD3/CD28 stimulation); conditions: for % viability: CD3/CD28; for % viabili.: CD3/CD28 stimulation; for % viabi.: KIP-1 stimulation
[2] = tested on: phospho-STAT-1, -3 and -5 in purified CD14+ monocytes; assay: Intracellular phospho-STAT-1, -3, -5 by BD PhosphoFlow in purified monocytes; format: cell-based, human; design: Monocyte-specific pSTAT1 signaling, inhibition / Monocyte-specific pSTAT3 signaling, inhibition / Monocyte-specific pSTAT5 signaling, inhibition: concentration or dose not given beside the values; conditions: purified CD14+ monocytes
Procedure: as §1

[3] = cited from earlier work
[4] = CAR T cell-derived supernatant, 30 min

## CC[C@@H]1CN(C(=O)NCC(F)(F)F)C[C@@H]1c1cnc2cnc3[nH]ccc3n12 [upadacitinib]
CD19 CAR T cells; read-out: Suppression of cytokine production, GMCSF (IC50), CD3/CD28 stimulation, 72 h
  IC50: < 100 nM
CD19 CAR T cells; read-out: Suppression of cytokine production, GMCSF (IC50), K562-CD19 stimulation, 72 h
  IC50: > 10000 nM
CD19 CAR T cells; read-out: Suppression of cytokine production, GMCSF (IC50), KIP-1 stimulation, 72 h
  IC50: < 100 nM
CD19 CAR T cells; read-out: Suppression of cytokine production, GzB (IC50), CD3/CD28 stimulation, 72 h
  IC50: < 100 nM
CD19 CAR T cells; read-out: Suppression of cytokine production, GzB (IC50), K562-CD19 stimulation, 72 h
  IC50: 1030 nM
CD19 CAR T cells; read-out: Suppression of cytokine production, GzB (IC50), KIP-1 stimulation, 72 h
  IC50: > 10000 nM
CD19 CAR T cells; read-out: Suppression of cytokine production, IFNg (IC50), CD3/CD28 stimulation, 72 h
  IC50: > 10000 nM
CD19 CAR T cells; read-out: Suppression of cytokine production, IFNg (IC50), KIP-1 stimulation, 72 h
  IC50: > 10000 nM
CD19 CAR T cells; read-out: Suppression of cytokine production, IL-2Ra (IC50), CD3/CD28 stimulation, 72 h
  IC50: < 100 nM
CD19 CAR T cells; read-out: Suppression of cytokine production, IL-2Ra (IC50), K562-CD19 stimulation, 72 h
  IC50: < 100 nM
CD19 CAR T cells; read-out: Suppression of cytokine production, IL-2Ra (IC50), KIP-1 stimulation, 72 h
  IC50: < 100 nM
CD19 CAR T cells; read-out: Suppression of cytokine production, IL-6 (IC50), CD3/CD28 stimulation, 72 h
  IC50: < 100 nM
CD19 CAR T cells; read-out: Suppression of cytokine production, IL-6 (IC50), KIP-1 stimulation, 72 h
  IC50: < 100 nM
CD19 CAR T cells; read-out: Suppression of cytokine production, IL-8 (IC50), CD3/CD28 stimulation, 72 h
  IC50: < 100 nM
CD19 CAR T cells; read-out: Suppression of cytokine production, IL-8 (IC50), K562-CD19 stimulation, 72 h
  IC50: < 100 nM
CD19 CAR T cells; read-out: Suppression of cytokine production, IL-8 (IC50), KIP-1 stimulation, 72 h
  IC50: < 100 nM
CD19 CAR T cells; read-out: Suppression of cytokine production, IL-10 (IC50), CD3/CD28 stimulation, 72 h
  IC50: < 100 nM
CD19 CAR T cells; read-out: Suppression of cytokine production, IL-10 (IC50), K562-CD19 stimulation, 72 h
  IC50: < 100 nM
CD19 CAR T cells; read-out: Suppression of cytokine production, IL-10 (IC50), KIP-1 stimulation, 72 h
  IC50: < 100 nM
CD19 CAR T cells; read-out: Suppression of cytokine production, MCP-1 (IC50), CD3/CD28 stimulation, 72 h
  IC50: < 100 nM
CD19 CAR T cells; read-out: Suppression of cytokine production, MCP-1 (IC50), K562-CD19 stimulation, 72 h
  IC50: < 100 nM
CD19 CAR T cells; read-out: Suppression of cytokine production, MCP-1 (IC50), KIP-1 stimulation, 72 h
  IC50: < 100 nM
CD19 CAR T cells; read-out: Suppression of cytokine production, MIG (IC50), CD3/CD28 stimulation, 72 h
  IC50: < 100 nM
CD19 CAR T cells; read-out: Suppression of cytokine production, MIG (IC50), K562-CD19 stimulation, 72 h
  IC50: < 100 nM
CD19 CAR T cells; read-out: Suppression of cytokine production, MIG (IC50), KIP-1 stimulation, 72 h
  IC50: < 100 nM
CD19 CAR T cells; read-out: Suppression of cytokine production, MIP-1a (IC50), CD3/CD28 stimulation, 72 h
  IC50: < 100 nM
CD19 CAR T cells; read-out: Suppression of cytokine production, MIP-1a (IC50), K562-CD19 stimulation, 72 h
  IC50: < 100 nM
CD19 CAR T cells; read-out: Suppression of cytokine production, MIP-1a (IC50), KIP-1 stimulation, 72 h
  IC50: 708 nM
CD19 CAR T cells; read-out: Suppression of cytokine production, MIP-1b (IC50), CD3/CD28 stimulation, 72 h
  IC50: < 100 nM
CD19 CAR T cells; read-out: Suppression of cytokine production, MIP-1b (IC50), K562-CD19 stimulation, 72 h
  IC50: < 100 nM
CD19 CAR T cells; read-out: Suppression of cytokine production, MIP-1b (IC50), KIP-1 stimulation, 72 h
  IC50: 146 nM
CD19 CAR T cells; read-out: Suppression of cytokine production, Perforin (IC50), CD3/CD28 stimulation, 72 h
  IC50: < 100 nM
CD19 CAR T cells; read-out: Suppression of cytokine production, Perforin (IC50), K562-CD19 stimulation, 72 h
  IC50: < 100 nM
CD19 CAR T cells; read-out: Suppression of cytokine production, Perforin (IC50), KIP-1 stimulation, 72 h
  IC50: < 100 nM
CD19 CAR T cells; read-out: Suppression of cytokine production, TNFa (IC50), CD3/CD28 stimulation, 72 h
  IC50: < 100 nM
CD19 CAR T cells; read-out: Suppression of cytokine production, TNFa (IC50), K562-CD19 stimulation, 72 h
  IC50: < 100 nM
CD19 CAR T cells; read-out: Suppression of cytokine production, TNFa (IC50), KIP-1 stimulation, 72 h
  IC50: < 100 nM
CD19 CAR T cells; K562-CD19 stimulation
  Suppression of cytokine production, IFNg (IC50): Suppress
  Suppression of cytokine production, IL-6 (IC50): Suppress
[1]; CD4 CART cells
  Primary Cell IL-6 pSTAT1 signaling (% inhibition): 49%
  Primary Cell IL-6 pSTAT3 signaling (% inhibition): 76%
  Primary Cell IL-6 pSTAT5 signaling (% inhibition): 60%
[1]; CD8 CART cells
  Primary Cell IL-6 pSTAT1 signaling (% inhibition): 13%
  Primary Cell IL-6 pSTAT3 signaling (% inhibition): 48%
  Primary Cell IL-6 pSTAT5 signaling (% inhibition): 52%
[1]; Monocytes within bulk PBMCs
  Primary cell GM-CSF-pSTAT5, inhibition: 97%
[1]; PBMC CD4 T cells
  Primary Cell IL-6 pSTAT1 signaling (% inhibition): 74%
  Primary Cell IL-6 pSTAT3 signaling (% inhibition): 91%
  Primary Cell IL-6 pSTAT5 signaling (% inhibition): 87%
[1]; PBMC CD8 T cells
  Primary Cell IL-6 pSTAT1 signaling (% inhibition): 32%
  Primary Cell IL-6 pSTAT3 signaling (% inhibition): 70%
  Primary Cell IL-6 pSTAT5 signaling (% inhibition): 56%
[1]; PBMC Monocytes
  Primary Cell IL-6 pSTAT1 signaling (% inhibition): 48%
  Primary Cell IL-6 pSTAT3 signaling (% inhibition): 93%
  Primary Cell IL-6 pSTAT5 signaling (% inhibition): 48%
[1]; T cells within bulk PBMCs
  Primary cell GM-CSF-pSTAT5, inhibition: 47%
CAR-T cells; dose 50 nM, day 4
  % viability: 74.4%
CAR-T cells; dose 50 nM, day 8
  % viability: 69.5%
CAR-T cells; dose 50 nM, day 12
  % viability: 80.6%
CAR-T cells; dose 100 nM, day 4
  % viability: 64.1%
CAR-T cells; dose 100 nM, day 8
  % viability: 69.2%
CAR-T cells; dose 100 nM, day 12
  % viability: 66.4%
CAR-T cells; 10 nM, Day 0
  % viabili.: 84%
  % viabi.: 84%
CAR-T cells; 10 nM, Day 4
  % viabili.: 92.6%
  % viabi.: 85.2%
CAR-T cells; 10 nM, Day 8
  % viabili.: 88.4%
  % viabi.: 72.1%
CAR-T cells; 10 nM, Day 12
  % viabili.: 71.6%
  % viabi.: 72.7%
CAR-T cells; 20 nM, Day 0
  % viabili.: 84%
  % viabi.: 84%
CAR-T cells; 20 nM, Day 4
  % viabili.: 93.8%
  % viabi.: 82.1%
CAR-T cells; 20 nM, Day 8
  % viabili.: 92%
  % viabi.: 70.1%
CAR-T cells; 20 nM, Day 12
  % viabili.: 72.7%
  % viabi.: 74.8%
CAR-T cells; 40 nM, Day 0
  % viabili.: 84%
  % viabi.: 84%
CAR-T cells; 40 nM, Day 4
  % viabili.: 91.4%
  % viabi.: 79.3%
CAR-T cells; 40 nM, Day 8
  % viabili.: 77%
  % viabi.: 59.3%
CAR-T cells; 40 nM, Day 12
  % viabili.: 73.2%
  % viabi.: 73.8%
CAR-T cells; 60 nM, Day 0
  % viabili.: 84%
  % viabi.: 84%
CAR-T cells; 60 nM, Day 4
  % viabili.: 90.6%
  % viabi.: 67.9%
CAR-T cells; 60 nM, Day 8
  % viabili.: 90.5%
  % viabi.: 76.4%
CAR-T cells; 60 nM, Day 12
  % viabili.: 76.3%
  % viabi.: 68.9%
CAR-T cells; 80 nM, Day 0
  % viabili.: 84%
  % viabi.: 84%
CAR-T cells; 80 nM, Day 4
  % viabili.: 88.3%
  % viabi.: 70.9%
CAR-T cells; 80 nM, Day 8
  % viabili.: 86.4%
  % viabi.: 68.8%
CAR-T cells; 80 nM, Day 12
  % viabili.: 75%
  % viabi.: 62.5%
CAR-T cells; 100 nM, Day 0
  % viabili.: 84%
  % viabi.: 84%
CAR-T cells; 100 nM, Day 4
  % viabili.: 84.2%
  % viabi.: 59.3%
CAR-T cells; 100 nM, Day 8
  % viabili.: 84.3%
  % viabi.: 60.9%
CAR-T cells; 100 nM, Day 12
  % viabili.: 72.5%
  % viabi.: 61.7%
CAR-T cells; further dose titrations, depending on the mode of stimulation
  concentration at and above which severe effects on expansion were seen: 20 to 40 nM
[2]; [4]
  Monocyte-specific pSTAT1 signaling, inhibition: 100%
  Monocyte-specific pSTAT3 signaling, inhibition: 100%
  Monocyte-specific pSTAT5 signaling, inhibition: 63%
[2]; rh-GM-CSF-induced
  Monocyte-specific pSTAT1 signaling, inhibition: na/ni
  Monocyte-specific pSTAT3 signaling, inhibition: na/ni
  Monocyte-specific pSTAT5 signaling, inhibition: 54%
[2]; rhIFNg-induced
  Monocyte-specific pSTAT1 signaling, inhibition: 100%
  Monocyte-specific pSTAT3 signaling, inhibition: 100%
  Monocyte-specific pSTAT5 signaling, inhibition: 100%
[2]; rhIL6-induced
  Monocyte-specific pSTAT1 signaling, inhibition: na/ni
  Monocyte-specific pSTAT3 signaling, inhibition: 100%
  Monocyte-specific pSTAT5 signaling, inhibition: na/ni
[3]; clinical dosing, patient sera, repeat dose studies
  Cmax: 73.9 ng/mL
[3]; plasma protein binding, reported
  Protein binding: ~50%
